Reference: US6902913B2, “Recombinant narbonolide polyketide synthase” (priority 1997, dated 2005)

Experiments:
[1] = biological target: T1, 6-hydroxylase encoded by eryF (Saccharopolyspora erythraea, UniProt Q00441); assay: in vitro 6-hydroxylation by the 6-hydroxylase encoded by eryF; assay type: biochemical; conditions: 100 pmol hydroxylase, 10 nmol substrate, 90 minutes at 30° C., based on relative total ion counts
T1 construct: made in house; host or cells: E. coli
T1 sequence (Q00441 1-404): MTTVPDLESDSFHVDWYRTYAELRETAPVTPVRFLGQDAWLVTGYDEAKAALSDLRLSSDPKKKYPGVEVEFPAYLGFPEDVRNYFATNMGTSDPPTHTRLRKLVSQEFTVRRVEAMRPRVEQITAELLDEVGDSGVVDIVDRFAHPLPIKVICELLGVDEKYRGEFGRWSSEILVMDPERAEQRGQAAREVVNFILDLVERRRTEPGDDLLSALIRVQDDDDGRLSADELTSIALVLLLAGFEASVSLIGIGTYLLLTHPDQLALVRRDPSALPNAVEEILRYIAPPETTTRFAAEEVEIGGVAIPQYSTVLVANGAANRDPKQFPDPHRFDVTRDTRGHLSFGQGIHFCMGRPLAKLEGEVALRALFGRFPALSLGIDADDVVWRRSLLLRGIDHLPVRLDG
Procedure: The 6-hydroxylase encoded by eryF was expressed in E. coli, and partially purified. The hydroxylase (100 pmol in 10 μL) was added to a reaction mixture (100 μl total volume) containing 50 mM Tris/HCl (pH 7.5), 20 μM spinach ferredoxin, 0.025 Unit of spinach ferredoxin:NADP^+ oxidoreductase, 0.8 Unit of glucose-6-phosphate dehydrogenase, 1.4 mM NADP^+, 7.6 mM glucose-6-phosphate, and 10 nmol 6-deoxyerythronolide B. The reaction was allowed to proceed for 90 minutes at 30° C. Half of the reaction mixture was loaded onto an HPLC, and the effluent was analyzed by mass spectrometry. The production of erythronolide B as evidenced by a new peak eluting earlier in the gradient and showing [M+H]^+=401. Conversion was estimated at 50% based on relative total ion counts.

picK protein = biological target: T2, picK protein (Streptomyces venezuelae, UniProt O87605, G416S); assay: hydroxylase activity of the picK protein (conversion of narbomycin to picromycin); assay type: biochemical; conditions: crude supernatant of E. coli BL21-DE3/pKOS023-61, 20 nmol narbomycin, 105 minutes at 30° C., by ELSD peak area
T2 construct: made in house; host or cells: E. coli BL21-DE3
Procedure: Plasmid pKOS023-61 was transformed into E. coli BL21-DE3. Successful transformants were grown in LB-containing carbenicillin (100 μg/ml) at 37° C. to an OD600 of 0.6. Isopropyl-beta-D-thiogalactopyranoside (IPTG) was added to a final concentration of 1 mM, and the cells were grown for an additional 3 hours before harvesting. The cells were collected by centrifugation and frozen at −80° C. A control culture of BL21-DE3 containing the vector plasmid pET21c (Invitrogen) was prepared in parallel.
The frozen BL21-DE3/pKOS023-61 cells were thawed, suspended in […] of cold cell disruption buffer (5 mM imidazole, 500 mM NaCl, 20 mM Tris/HCl, pH 8.0) and sonicated to facilitate lysis. Cellular debris and supernatant were separated by centrifugation and subjected to SDS-PAGE on 10-15% gradient gels, with Coomassie Blue staining, using a Pharmacia Phast Gel Electrophoresis system. The soluble crude extract from BL21-DE3/pKOS023-61 contained a Coomassie stained band of Mr˜46 kDa, which was absent in the control strain BL21-DE3/pET21c.
The hydroxylase activity of the picK protein was assayed as follows. […] Half of the reaction mixture was loaded onto an HPLC, and the effluent was analyzed by evaporative light scattering (ELSD) and mass spectrometry. […]

Row | SMILES | conversion of 6-deoxyerythronolide B to erythronolide B [1] | conversion of narbomycin to picromycin (picK protein)
1 | CC[C@H]1OC(=O)[C@H](C)[C@@H](O)[C@H](C)[C@@H](O)[C@@H](C)C[C@@H](C)C(=O)[C@H](C)[C@@H](O)[C@H]1C [6-deoxyerythronolide B] | ~50% | 
2 | CC[C@H]1OC(=O)[C@H](C)C(=O)[C@H](C)[C@@H](O[C@@H]2O[C@H](C)C[C@H](N(C)C)[C@H]2O)[C@@H](C)C[C@@H](C)C(=O)/C=C/[C@H]1C [narbomycin] |  | greater than 90%
